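Following 48 hours of exposure in 96-well plates, responses at five concentrations were used to interpolate endpoints linearly. GI50 marks 50% less growth.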 Activity calls are given as the source filed them. Cut-off read from the data, not from the text of the source: active = GI50 up to about 1.1 µM and inactive = higher.
Legend:
Test in all cases: inhibition of tumour cell growth, NCI panel, 48 h
786-0 = system: 786-0
A498 = system: A498
A549 = system: A549
ACHN = system: ACHN
BT-549 = system: BT-549
CCRF-CEM = system: CCRF-CEM
COLO 205 = system: COLO 205
DU-145 = system: DU-145
EKVX = system: EKVX
HCC 2998 = system: HCC 2998
HCT-116 = system: HCT-116
HCT-15 = system: HCT-15
HL-60 = system: HL-60
HOP-62 = system: HOP-62
HOP-92 = system: HOP-92
HT-29 = system: HT-29
Hs-578T = system: Hs-578T
IGROV-1 = system: IGROV-1
K562 = system: K562
KM12 = system: KM12
LOX IMVI = system: LOX IMVI
M14 = system: M14
MCF7 = system: MCF7
MDA-MB-231 = system: MDA-MB-231
MDA-MB-435 = system: MDA-MB-435
MDA-N = system: MDA-N
MOLT-4 = system: MOLT-4
NCI-H226 = system: NCI-H226
NCI-H23 = system: NCI-H23
NCI-H460 = system: NCI-H460
NCI-H522 = system: NCI-H522
NCI/ADR-RES = system: NCI/ADR-RES
OVCAR-3 = system: OVCAR-3
OVCAR-4 = system: OVCAR-4
OVCAR-5 = system: OVCAR-5
OVCAR-8 = system: OVCAR-8
PC-3 = system: PC-3
RPMI-8226 = system: RPMI-8226
RXF 393 = system: RXF 393
SF-268 = system: SF-268
SF-295 = system: SF-295
SF-539 = system: SF-539
SK-MEL-28 = system: SK-MEL-28
SK-MEL-2 = system: SK-MEL-2
SK-MEL-5 = system: SK-MEL-5
SK-OV-3 = system: SK-OV-3
SN12C = system: SN12C
SNB-19 = system: SNB-19
SNB-75 = system: SNB-75
SW-620 = system: SW-620
T47D = system: T47D
TK-10 = system: TK-10
U-251 = system: U-251
UACC-257 = system: UACC-257
UACC-62 = system: UACC-62
UO-31 = system: UO-31
CAKI-1 = system: CAKI-1
Malme-3M = system: Malme-3M

**Q.** `COc1cc2c(cc1OC)C(=O)/C(=C/c1cc(C)cc(C)c1)C2` was tested. Which GI50 (786-0) did it give?
**A.** 0.0982 µM (active)

**Q.** And the GI50 (A498)?
**A.** 0.131 µM (active)

**Q.** What about the GI50 (A549) of the same compound?
**A.** 0.0713 µM (active)

**Q.** And the GI50 (ACHN)?
**A.** 12.9 µM (inactive)

**Q.** What about the GI50 (BT-549) of the same compound?
**A.** 11.3 µM (inactive)

**Q.** And the GI50 (CCRF-CEM)?
**A.** 0.0514 µM (active)

**Q.** What about the GI50 (COLO 205) of the same compound?
**A.** 0.0735 µM (active)

**Q.** And the GI50 (DU-145)?
**A.** 0.198 µM (active)

**Q.** What about the GI50 (EKVX) of the same compound?
**A.** 1.29 µM (inactive)

**Q.** What about the GI50 (HCC 2998) of the same compound?
**A.** 0.0601 µM (active)

**Q.** What about the GI50 (HCT-116) of the same compound?
**A.** 0.0445 µM (active)

**Q.** And the GI50 (HCT-15)?
**A.** 0.0296 µM

**Q.** What about the GI50 (HL-60) of the same compound?
**A.** < 0.0244 µM (active)

**Q.** What about the GI50 (HOP-62) of the same compound?
**A.** 0.127 µM (active)

**Q.** And the GI50 (HOP-92)?
**A.** 3.29 µM (inactive)

**Q.** And the GI50 (HT-29)?
**A.** 0.0385 µM (active)

**Q.** What about the GI50 (Hs-578T) of the same compound?
**A.** 0.538 µM (active)

**Q.** What about the GI50 (IGROV-1) of the same compound?
**A.** 0.0908 µM (active)

**Q.** And the GI50 (K562)?
**A.** 0.0232 µM (active)

**Q.** And the GI50 (KM12)?
**A.** < 0.0203 µM (active)

**Q.** And the GI50 (LOX IMVI)?
**A.** 0.0807 µM (active)

**Q.** And the GI50 (M14)?
**A.** 0.148 µM (active)

**Q.** And the GI50 (MCF7)?
**A.** 0.385 µM (active)

**Q.** What about the GI50 (MDA-MB-231) of the same compound?
**A.** 0.143 µM (active)

**Q.** What about the GI50 (MDA-MB-435) of the same compound?
**A.** < 0.0146 µM (active)

**Q.** And the GI50 (MDA-N)?
**A.** < 0.0156 µM (active)

**Q.** And the GI50 (MOLT-4)?
**A.** 0.504 µM (active)

**Q.** What about the GI50 (NCI-H226) of the same compound?
**A.** 0.172 µM (active)

**Q.** And the GI50 (NCI-H23)?
**A.** 0.313 µM (active)

**Q.** And the GI50 (NCI-H460)?
**A.** 0.06 µM (active)

**Q.** What about the GI50 (NCI-H522) of the same compound?
**A.** 0.0451 µM (active)

**Q.** And the GI50 (NCI/ADR-RES)?
**A.** 0.065 µM (active)

**Q.** And the GI50 (OVCAR-3)?
**A.** 0.0324 µM (active)

**Q.** And the GI50 (OVCAR-4)?
**A.** 19.8 µM (inactive)

**Q.** What about the GI50 (OVCAR-5) of the same compound?
**A.** 1.09 µM (active)

**Q.** And the GI50 (OVCAR-8)?
**A.** 0.175 µM (active)

**Q.** And the GI50 (PC-3)?
**A.** 0.0667 µM (active)

**Q.** And the GI50 (RPMI-8226)?
**A.** 0.129 µM (active)

**Q.** And the GI50 (RXF 393)?
**A.** 0.0736 µM (active)

**Q.** What about the GI50 (SF-268) of the same compound?
**A.** 12.9 µM (inactive)

**Q.** What about the GI50 (SF-295) of the same compound?
**A.** < 0.0301 µM (active)

**Q.** And the GI50 (SF-539)?
**A.** 0.0871 µM (active)

**Q.** And the GI50 (SK-MEL-28)?
**A.** 40.7 µM (inactive)

**Q.** And the GI50 (SK-MEL-2)?
**A.** 0.184 µM (active)

**Q.** What about the GI50 (SK-MEL-5) of the same compound?
**A.** 0.0239 µM (active)

**Q.** And the GI50 (SK-OV-3)?
**A.** 0.308 µM (active)

**Q.** What about the GI50 (SN12C) of the same compound?
**A.** 0.318 µM (active)

**Q.** And the GI50 (SNB-19)?
**A.** 1.1 µM (active)

**Q.** What about the GI50 (SNB-75) of the same compound?
**A.** 0.211 µM (active)

**Q.** And the GI50 (SW-620)?
**A.** 0.0394 µM (active)

**Q.** And the GI50 (T47D)?
**A.** 0.883 µM (active)

**Q.** What about the GI50 (TK-10) of the same compound?
**A.** 21.1 µM (inactive)

**Q.** And the GI50 (U-251)?
**A.** 0.122 µM (active)

**Q.** And the GI50 (UACC-257)?
**A.** 0.561 µM (active)

**Q.** And the GI50 (UACC-62)?
**A.** 0.0443 µM (active)

**Q.** And the GI50 (UO-31)?
**A.** 1.95 µM (inactive)

**Q.** For `Cc1cccc2sc(NC(=O)NS(=O)(=O)n3cnc4ccccc43)nc12`, which GI50 (786-0) is on record?
**A.** 33.8 µM (inactive)

**Q.** What about the GI50 (A498) of the same compound?
**A.** 25.5 µM (inactive)

**Q.** And the GI50 (A549)?
**A.** 37.5 µM (inactive)

**Q.** And the GI50 (ACHN)?
**A.** 32.8 µM (inactive)

**Q.** What about the GI50 (BT-549) of the same compound?
**A.** 23.3 µM (inactive)

**Q.** And the GI50 (CAKI-1)?
**A.** 34.7 µM (inactive)

**Q.** What about the GI50 (CCRF-CEM) of the same compound?
**A.** 76.6 µM (inactive)

**Q.** What about the GI50 (COLO 205) of the same compound?
**A.** 27.8 µM (inactive)

**Q.** And the GI50 (DU-145)?
**A.** 32.8 µM (inactive)

**Q.** What about the GI50 (EKVX) of the same compound?
**A.** 1.67 µM (inactive)

**Q.** And the GI50 (HCC 2998)?
**A.** 15.6 µM (inactive)

**Q.** And the GI50 (HCT-116)?
**A.** 28.1 µM (inactive)

**Q.** What about the GI50 (HCT-15) of the same compound?
**A.** 25.9 µM

**Q.** What about the GI50 (HL-60) of the same compound?
**A.** 31.5 µM (inactive)

**Q.** And the GI50 (HOP-62)?
**A.** 34.7 µM (inactive)

**Q.** And the GI50 (HOP-92)?
**A.** 15.3 µM (inactive)

**Q.** What about the GI50 (HT-29) of the same compound?
**A.** 33.9 µM (inactive)

**Q.** What about the GI50 (Hs-578T) of the same compound?
**A.** 13.8 µM (inactive)

**Q.** What about the GI50 (IGROV-1) of the same compound?
**A.** 16.5 µM (inactive)

**Q.** And the GI50 (KM12)?
**A.** 30.4 µM (inactive)

**Q.** What about the GI50 (M14) of the same compound?
**A.** 31.3 µM (inactive)

**Q.** And the GI50 (MCF7)?
**A.** 16.1 µM (inactive)

**Q.** And the GI50 (MDA-MB-231)?
**A.** 27 µM (inactive)

**Q.** What about the GI50 (MDA-MB-435) of the same compound?
**A.** 27.9 µM (inactive)

**Q.** What about the GI50 (MDA-N) of the same compound?
**A.** 31.3 µM (inactive)

**Q.** And the GI50 (MOLT-4)?
**A.** 26.5 µM (inactive)

**Q.** What about the GI50 (Malme-3M) of the same compound?
**A.** 25.2 µM (inactive)

**Q.** And the GI50 (NCI-H226)?
**A.** 59 µM (inactive)

**Q.** What about the GI50 (NCI-H23) of the same compound?
**A.** 18.4 µM (inactive)

**Q.** What about the GI50 (NCI-H460) of the same compound?
**A.** 29.9 µM (inactive)

**Q.** What about the GI50 (NCI-H522) of the same compound?
**A.** 21.6 µM (inactive)

**Q.** And the GI50 (NCI/ADR-RES)?
**A.** 27.4 µM (inactive)

**Q.** And the GI50 (OVCAR-3)?
**A.** 22.3 µM (inactive)

**Q.** And the GI50 (OVCAR-4)?
**A.** 43.8 µM (inactive)

**Q.** What about the GI50 (OVCAR-5) of the same compound?
**A.** 25.9 µM (inactive)

**Q.** What about the GI50 (OVCAR-8) of the same compound?
**A.** 22.5 µM (inactive)

**Q.** What about the GI50 (PC-3) of the same compound?
**A.** 28.6 µM (inactive)

**Q.** What about the GI50 (RPMI-8226) of the same compound?
**A.** 21.5 µM (inactive)

**Q.** And the GI50 (RXF 393)?
**A.** 15.9 µM (inactive)

**Q.** What about the GI50 (SF-268) of the same compound?
**A.** 28.5 µM (inactive)

**Q.** What about the GI50 (SF-295) of the same compound?
**A.** 20.9 µM (inactive)

**Q.** And the GI50 (SF-539)?
**A.** 24 µM (inactive)

**Q.** What about the GI50 (SK-MEL-28) of the same compound?
**A.** 35.9 µM (inactive)

**Q.** And the GI50 (SK-MEL-2)?
**A.** 18.7 µM (inactive)

**Q.** What about the GI50 (SK-MEL-5) of the same compound?
**A.** 21.7 µM (inactive)

**Q.** What about the GI50 (SK-OV-3) of the same compound?
**A.** 38.3 µM (inactive)

**Q.** What about the GI50 (SN12C) of the same compound?
**A.** 25.9 µM (inactive)

**Q.** And the GI50 (SNB-19)?
**A.** 38 µM (inactive)

**Q.** What about the GI50 (SNB-75) of the same compound?
**A.** 18.8 µM (inactive)

**Q.** And the GI50 (SW-620)?
**A.** 28.4 µM (inactive)

**Q.** What about the GI50 (T47D) of the same compound?
**A.** 15.1 µM (inactive)

**Q.** And the GI50 (TK-10)?
**A.** 35.6 µM (inactive)

**Q.** And the GI50 (U-251)?
**A.** 21 µM (inactive)

**Q.** And the GI50 (UACC-257)?
**A.** 23 µM (inactive)

**Q.** And the GI50 (UACC-62)?
**A.** 18.3 µM (inactive)

**Q.** What about the GI50 (UO-31) of the same compound?
**A.** 22.2 µM (inactive)

Source: ChEMBL document CHEMBL1201862, “PubChem BioAssay data set” (2004)
